Consider eight molecules from patent publication US20050100529A1, “Methods of using and compositions comprising immunomodulatory compounds for the treatment and management of asbestos-related diseases and disorders” (priority 2003, published 2005).

The conditions of data set [1]: solvent systems, humidity or heating as worded; cited from earlier work.
Data set [2] relates to TNF-α. Nature of the data set: Inhibition of TNF-α production following LPS-stimulation of human PBMC. The class given is cell-based. The settings on record: for IC50: human PBMC, LPS-stimulated, in vitro, read-out: IC50 for inhibiting production of TNF-α following LPS-stimulation of PBMC. The text has this:
(§1) In a specific embodiment, inhibitions of TNF-α production following LPS-stimulation of human PBMC and human whole blood by 3-(4-amino-1-oxo-1,3-dihydro-isoindol-2-yl)-piperidine-2,6-dione, 4-(amino)-2-(2,6-dioxo-(3-piperidyl))-isoindoline-1,3-dione or thalidomide were investigated in vitro.

The conditions of data set [3]: crystalline polymorph of 3-(4-amino-1-oxo-1,3 dihydro-isoindol-2-yl)-piperidine-2,6-dione; cited from earlier work.
A further data set deals with IL10. As to the kind of experiment: LPS-stimulated production of IL10 by PBMC. The class given is cell-based.
Data set [4] deals with TNF-α. Nature of the data set: Inhibition of TNF-α production following LPS-stimulation of human whole blood. The format is cell-based. As to conditions: LPS-stimulated, in vitro, read-out: IC50 for inhibiting production of TNF-α following LPS-stimulation of human whole blood.
Description: as §1

For another data set, the system named is IL1β. Nature of the data set: LPS-stimulated production of IL1β by PBMC. The class given is cell-based.
The subject of a further data set is IL6. Nature of the data set: LPS-stimulated production of IL6 by PBMC. The class given is cell-based.
Another data set relates to mesothelioma patients. Nature of the data set: Clinical studies in unresectable or relapsed mesothelioma patients. The class given is in vivo, human. As to conditions: 10 mg as a continuous oral daily dose. Here is the method: Clinical trials with the administration of an immunomodulatory compound in an amount of from about 1 mg to about 1,000 mg, from about 1 mg to about 500 mg, or from about 1 mg to about 250 mg per day are conducted in patients with asbestosis, malignant mesothelioma, or malignant pleural effusion mesothelioma syndrome. In a specific embodiment, patients receive about 1 mg to about 150 mg/day of 3-(4-amino-1-oxo-1,3-dihydro-isoindol-2-yl)-piperidine-2,6-dione alone or in combination with vinorelbine. Patients who experience clinical benefit are permitted to continue on treatment.
Other clinical studies are performed using 3-(4-amino-1-oxo-1,3-dihydro-isoindol-2-yl)-piperidine-2,6-dione in unresectable or relapsed mesothelioma patients that have not responded to conventional therapy. In one embodiment, 3-(4-amino-1-oxo-1,3-dihydro-isoindol-2-yl)-piperidine-2,6-dione is administered in an amount of about 1 mg to about 150 mg/day to the patients. Treatment with 10 mg as a continuous oral daily dose is well-tolerated.

Usually IC50 stands for the concentration that inhibits the measured activity by half.

Take `Nc1cccc2c1CN(C1CCC(=O)NC1=O)C2=O` (stereo not drawn) [Form E, 3-(4-amino-1-oxo-1,3 dihydro-isoindol-2-yl)-piperidene-2,6-dione]: in data set [1], the “Stability / interconversion of the polymorphic form” value (shortened to “Stability / interconversion”) is on record as “In aqueous solvent systems, Form E appears to be the most stable form”.
As for `O=C1CCC(N2C(=O)c3ccccc3C2=O)C(=O)N1` (racemic) [Thalidomide, thalidomide, reference compound], the IC50 was about 194 µM in the data set on TNF-α [2] and about 50.1 mg/L in the data set on TNF-α [2] (same value in mass units).
Regarding `Nc1cccc2c1CN(C1CCC(=O)NC1=O)C2=O` (stereo not drawn) [Form C, 3-(4-amino-1-oxo-1,3 dihydro-isoindol-2-yl)-piperidene-2,6-dione], the “Stability / interconversion” value in data set [1] is reported as “can convert to Form B at higher relative humidities”. For the same molecule, the Hygroscopicity entry in data set [3] is “not hygroscopic below about 85% RH”.
With `Nc1cccc2c1CN(C1CCC(=O)NC1=O)C2=O` (stereo not drawn) [Form B, 3-(4-amino-1-oxo-1,3 dihydro-isoindol-2-yl)-piperidene-2,6-dione], in data set [1], the “Stability / interconversion” value is recorded as “converts to Form E in aqueous solvent systems”.
For `Nc1cccc2c1C(=O)N(C1CCC(=O)NC1=O)C2=O` (stereo not drawn) [4-(amino)-2-(2,6-dioxo(3-piperidyl))-isoindoline-1,3-dione], the “Effect on production of the anti-inflammatory cytokine IL10” value with IL10 is given as “increased production”. In the data set on TNF-α [2], the “Effect on LPS-stimulated production of TNF-α by PBMC” value was “dose-dependent inhibition”. For the same molecule, the IC50 with TNF-α [2] is about 0.024 µM; in the data set with TNF-α [2] (same value in mass units), about 0.00655 mg/L; in the data set with TNF-α [4], about 0.025 µM; in the data set with TNF-α [4] (same value in mass units) it was about 0.00683 mg/L. In addition, the “Effect on LPS-stimulated production of IL1β by PBMC” value with IL1β was “dose-dependent inhibition”. Further, the “Effect on LPS-stimulated production of IL6 by PBMC” value in the data set on IL6 was “dose-dependent inhibition”.
`Nc1cccc2c1CN(C1CCC(=O)NC1=O)C2=O` (stereo not drawn) [Form A, 3-(4-amino-1-oxo-1,3 dihydro-isoindol-2-yl)-piperidene-2,6-dione]: in data set [1], the “Stability / interconversion” value is recorded as “most thermodynamically stable anhydrous polymorph”. In data set [3], the Hygroscopicity entry is “weakly or not hygroscopic”.
On to `Nc1cccc2c1CN(C1CCC(=O)NC1=O)C2=O` (stereo not drawn) [Form D, 3-(4-amino-1-oxo-1,3 dihydro-isoindol-2-yl)-piperidene-2,6-dione], for which, in data set [1], the “Stability / interconversion” value was “convert to Form B when stressed at higher relative humidities”. In addition, the Hygroscopicity entry in data set [3] is “either weakly or not hygroscopic”.
`Nc1cccc2c1CN(C1CCC(=O)NC1=O)C2=O` (stereo not drawn) [3-(4-amino-1-oxo-1,3-dihydro-isoindol-2-yl)-piperidine-2,6-dione]: in the data set with IL10, the “Effect on production of the anti-inflammatory cytokine IL10” value is reported as “increased production”. Further, in the data set on TNF-α [2], the “Effect on LPS-stimulated production of TNF-α by PBMC” value is recorded as “dose-dependent inhibition”. Further, the IC50 in the data set on TNF-α [2] is about 0.1 µM; with TNF-α [2] (same value in mass units) it was about 0.0259 mg/L; in the data set with TNF-α [4], about 0.48 µM; in the data set on TNF-α [4] (same value in mass units), about 0.104 mg/L. For the same molecule, in the data set on mesothelioma patients, the Tolerability entry is given as “well-tolerated”. The “Effect on LPS-stimulated production of IL1β by PBMC” value in the data set on IL1β is “dose-dependent inhibition”. Besides, in the data set with IL6, the “Effect on LPS-stimulated production of IL6 by PBMC” value is recorded as “dose-dependent inhibition”.
